Reference: article PMC9591056, “Inhibitors of ApiAP2 protein DNA binding exhibit multistage activity against Plasmodium parasites” (PLOS Pathogens, 2022)

What was measured:
AP2-I D3 = target: T1, AP2-I D3 (Plasmodium falciparum, UniProt Q8IJW6); test: competitive EMSA, inhibition of DNA binding; conditions: 300 uM compound; cognate biotinylated dsDNA probe; 10 mM Tris pH 7.5, 50 mM KCl, 6 mM MgCl2
T1 construct: gene PF3D7_1007700

AP2-HS D1 = target: T2, AP2-HS D1 (Plasmodium falciparum, UniProt C0H5G5); test: competitive EMSA, inhibition of DNA binding; conditions: 300 uM compound; cognate biotinylated dsDNA probe; 10 mM Tris pH 7.5, 50 mM KCl, 6 mM MgCl2
T2 construct: gene PF3D7_1342900
T2 sequence (C0H5G5 2363-2413 limits assumed): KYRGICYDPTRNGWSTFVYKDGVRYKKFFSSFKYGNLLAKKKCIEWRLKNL

PbAP2-Sp = target: T3, PbAP2-Sp (Plasmodium berghei, UniProt A0A509ASL1); test: competitive EMSA, inhibition of DNA binding; conditions: 300 uM compound; cognate biotinylated dsDNA probe; 10 mM Tris pH 7.5, 50 mM KCl, 6 mM MgCl2
T3 construct: gene PBANKA_1329800
T3 sequence (A0A509ASL1 175-230 limits assumed): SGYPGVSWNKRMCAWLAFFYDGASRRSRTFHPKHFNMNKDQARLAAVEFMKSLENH

PfSIP2 D1 = target: T4, PfSIP2 D1 (Plasmodium falciparum, UniProt C6KSN9); test: competitive EMSA, inhibition of DNA binding; conditions: 300 uM compound; cognate biotinylated dsDNA probe; 10 mM Tris pH 7.5, 50 mM KCl, 6 mM MgCl2
T4 construct: gene PF3D7_0604100
T4 sequence (C6KSN9 1729-1788 limits assumed): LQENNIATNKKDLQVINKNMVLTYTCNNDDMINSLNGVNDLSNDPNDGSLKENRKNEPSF

AP2-EXP AP2 domain [1] = target: T5, AP2-EXP AP2 domain (Plasmodium falciparum, UniProt Q8IKH2); test: competitive EMSA, inhibition of DNA binding; conditions: 300 uM compound, biotinylated cognate dsDNA probe, 10 mM Tris pH 7.5, 50 mM KCl, 6 mM MgCl2
T5 construct: gene PF3D7_1466400
T5 sequence (Q8IKH2 63-123): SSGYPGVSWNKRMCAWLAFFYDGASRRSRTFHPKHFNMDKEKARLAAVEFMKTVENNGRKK

AP2-EXP AP2 domain [2] = target: AP2-EXP AP2 domain (Plasmodium falciparum, UniProt Q8IKH2 64-118); test: EMSA; 300 uM Compound D; EMSA: 10 mM Tris pH 7.5, 50 mM KCl, 1 mM DTT, 6 mM MgCl2, 60 ng/uL poly dIdC, 65 ng BSA; 125 ng AP2-EXP or PbAP2-Sp, 40-150 fmol probe; 15 min protein + compound, then 5 min with DNA; temperature not stated; conditions: protein: recombinant; (expressed as in cited work); label: 5' biotin on forward strand; blunt
AtERF1 AP2/ERF domain = AtERF1 AP2/ERF domain (Arabidopsis thaliana, UniProt O80337 147-205); test: EMSA; 300 uM Compound A; EMSA: 10 mM Tris pH 7.5, 50 mM KCl, 1 mM DTT, 6 mM MgCl2, 60 ng/uL poly dIdC, 65 ng BSA; 125 ng AP2-EXP or PbAP2-Sp, 40-150 fmol probe; 15 min protein + compound, then 5 min with DNA; temperature not stated; conditions: protein: recombinant; (pGex4t-1); label: 5' biotin on forward strand; blunt
AtERF1 AP2/ERF domain, sequence (O80337 147-205): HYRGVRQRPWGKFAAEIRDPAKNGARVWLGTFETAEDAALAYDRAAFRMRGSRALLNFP

T1 sequence (Q8IJW6 entry or part of it): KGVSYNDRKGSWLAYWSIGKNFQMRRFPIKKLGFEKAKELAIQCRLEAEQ

## CCc1ccc(-c2nc3cc(NC(=O)c4ccc([N+](=O)[O-])o4)ccc3o2)cc1 [B, Compound B]
AP2-I D3
  competitive EMSA, inhibition of DNA binding: Compounds A, B, C, and I can prevent DNA binding by AP2-I D3
AP2-HS D1
  competitive EMSA, inhibition of DNA binding: Compounds B and I prevent DNA binding by AP2-HS D1 (S5B Fig)
PbAP2-Sp
  competitive EMSA, inhibition of DNA binding: Compounds B and C block PbAP2-Sp DNA binding in vitro
PfSIP2 D1
  competitive EMSA, inhibition of DNA binding: Compounds B, C and I prevent DNA binding by PfSIP2 D1 (S5C Fig)

## Cc1ccc(-c2nc3cc(NC(=O)c4ccc([N+](=O)[O-])o4)ccc3o2)cc1Cl [B-1, Compound B-1]
AP2-I D3
  competitive EMSA, inhibition of DNA binding: prevent DNA binding by AP2-EXP (Fig 2A) and AP2-I D3 (S7A Fig)
AP2-EXP AP2 domain [1]
  competitive EMSA, inhibition of DNA binding: Compounds B-1 and B-4 prevent DNA binding by AP2-EXP (Fig 2A)

## Cc1cccc(-c2nc3cc(NC(=O)c4ccc([N+](=O)[O-])o4)ccc3o2)c1 [B-4, Compound B-4]
AP2-I D3
  competitive EMSA, inhibition of DNA binding: prevent DNA binding by AP2-EXP (Fig 2A) and AP2-I D3 (S7A Fig)
AP2-EXP AP2 domain [1]; also titrated at 25, 50 and 150 uM
  competitive EMSA, inhibition of DNA binding: Compounds B-1 and B-4 prevent DNA binding by AP2-EXP (Fig 2A)

B1: AP2-EXP gel shift probe (dsDNA)
DNA 1: ACTACACACCTAACTATGCATGCATCAATATAGTGGATTA
DNA 2: TAATCCACTATATTGATGCATGCATAGTTAGGTGTGTAGT
AP2-EXP AP2 domain [2]
  binding result: binds

B2: AtERF1 gel shift probe (dsDNA)
DNA 1: TTTAACTTTAATTATGAATATGAGGCGGCGGGTTCGTGATCAAC
DNA 2: GTTGATCACGAACCCGCCGCCTCATATTCATAATTAAAGTTAAA
AtERF1 AP2/ERF domain
  binding result: binds
